Among the data in BindingDB's records for doi:10.1016/j.bioorg.2016.11.008 (Beni-Suef University, 2017) are IC50 values, retold here.

As a reminder, the IC50 is the point on the concentration scale where inhibition reaches its midpoint. Low values mean greater potency, high ones weaker potency.

“And” between values parts separate entries of the source, which are not always exact repeats. Equal entries are not always repeated.

The target in experiment [1] is T1, Prostaglandin G/H synthase 1 (Ovis aries, UniProt P05979).
T1 sequence (P05979 whole entry): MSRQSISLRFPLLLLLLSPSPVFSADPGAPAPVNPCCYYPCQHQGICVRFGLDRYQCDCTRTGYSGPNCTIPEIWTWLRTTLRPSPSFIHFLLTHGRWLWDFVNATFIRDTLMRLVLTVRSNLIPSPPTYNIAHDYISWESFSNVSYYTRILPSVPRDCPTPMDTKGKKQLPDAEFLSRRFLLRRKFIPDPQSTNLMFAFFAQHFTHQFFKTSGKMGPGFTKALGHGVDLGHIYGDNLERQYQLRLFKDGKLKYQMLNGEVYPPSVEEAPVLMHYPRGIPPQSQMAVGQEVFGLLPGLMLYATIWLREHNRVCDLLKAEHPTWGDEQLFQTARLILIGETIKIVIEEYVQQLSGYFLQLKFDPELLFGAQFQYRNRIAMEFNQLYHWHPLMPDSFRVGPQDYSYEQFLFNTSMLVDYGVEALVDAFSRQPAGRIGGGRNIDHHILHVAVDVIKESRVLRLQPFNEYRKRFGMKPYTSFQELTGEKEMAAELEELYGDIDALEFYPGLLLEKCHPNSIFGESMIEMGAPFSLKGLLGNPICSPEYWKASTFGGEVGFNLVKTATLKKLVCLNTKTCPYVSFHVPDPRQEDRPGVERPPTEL
Briefly: COX-1/COX-2 Inhibition Colorimetric Assay. The protocol: (§1) The in vitro inhibition of ovine COX-1 and COX-2 was measured using an enzyme immuno assay (EIA) kit (Cayman Chemical, Ann Arbor, MI, USA) according to the manufacturer's instructions and as reported before [Roschek et al., J. Med. Food., 12:615-623].

The target of experiment [2] is T2, Prostaglandin G/H synthase 2 (Ovis aries, UniProt P79208).
T2 sequence (P79208 whole entry): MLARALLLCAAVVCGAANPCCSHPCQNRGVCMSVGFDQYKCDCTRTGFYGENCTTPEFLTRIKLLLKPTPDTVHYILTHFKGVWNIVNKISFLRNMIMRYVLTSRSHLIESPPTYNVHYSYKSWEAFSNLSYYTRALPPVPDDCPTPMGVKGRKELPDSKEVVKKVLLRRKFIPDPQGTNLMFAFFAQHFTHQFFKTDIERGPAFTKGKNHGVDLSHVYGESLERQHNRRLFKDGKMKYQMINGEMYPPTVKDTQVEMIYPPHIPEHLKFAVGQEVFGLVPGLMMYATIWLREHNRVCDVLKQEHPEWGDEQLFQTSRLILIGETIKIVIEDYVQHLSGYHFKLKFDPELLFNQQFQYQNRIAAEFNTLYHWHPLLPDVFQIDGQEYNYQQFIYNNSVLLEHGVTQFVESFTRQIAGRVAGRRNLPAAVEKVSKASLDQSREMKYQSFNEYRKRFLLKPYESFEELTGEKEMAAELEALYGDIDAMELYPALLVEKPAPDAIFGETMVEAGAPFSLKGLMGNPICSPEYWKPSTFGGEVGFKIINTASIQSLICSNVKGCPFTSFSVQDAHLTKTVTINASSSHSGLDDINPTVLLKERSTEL
Description: COX-1/COX-2 Inhibition Colorimetric Assay. The method, then: as §1

With `COc1ccc(C2CC(c3ccc(Cl)cc3)=NN2c2ccc(S(N)(=O)=O)cc2)cc1` (configuration not stated), the IC50 is 6.52 µM in experiment [1] and 740 nM in experiment [2].
For `CS(=O)(=O)c1ccc(N2N=C(c3ccc(Cl)cc3)CC2c2ccc(Cl)cc2)cc1` (configuration not stated) [3,5-Bis-(4-chloro-phenyl)-1-(4-methanesulfonyl-phenyl)-4,5-dihydro-1H-pyrazole (10j)] the same measures were 9.89 µM and 1520 nM.
In the case of `COc1cc(C2CC(c3ccc(Br)cc3)=NN2c2ccc(S(C)(=O)=O)cc2)cc(OC)c1OC` (configuration not stated) [3-(4-Bromo-phenyl)-1-(4-methanesulfonyl-phenyl)-5-(3,4,5-trimethoxy-phenyl)-4,5-dihydro-1H-pyrazole (10g)], the IC50 came out at 8.65 µM in experiment [1] and 980 nM in experiment [2].
For the compound `COc1ccc(C2CC(c3ccc(Br)cc3)=NN2c2ccc(S(C)(=O)=O)cc2)cc1` (configuration not stated) [3-(4-Bromo-phenyl)-1-(4-methanesulfonyl-phenyl)-5-(4-methoxy-phenyl)-4,5-dihydro-1H-pyrazole (10k)], the IC50 is 4.85 µM in experiment [1] and 630 nM in experiment [2].
For the compound `COc1cc(C2CC(c3ccc(Cl)cc3)=NN2c2ccc(S(C)(=O)=O)cc2)cc(OC)c1OC` (configuration not stated) [3-(4-Chloro-phenyl)-1-(4-methanesulfonyl-phenyl)-5-(3,4,5-trimethoxy-phenyl)-4,5-dihydro-1H-pyrazole (10h)], the IC50 in experiment [1] is 3.87 µM and 8.34 µM; in experiment [2], 420 nM and 2980 nM.
In the case of `COc1ccc(C2CC(c3ccc(Cl)cc3)=NN2c2ccc(S(C)(=O)=O)cc2)cc1` (configuration not stated) [3-(4-Chloro-phenyl)-1-(4-methanesulfonyl-phenyl)-5-(4-methoxy-phenyl)-4,5-dihydro-1H-pyrazole (10l)], the results for the IC50 in experiment [1] and in experiment [2] were 10.2 µM and 3410 nM, respectively.
On to `COc1cc(C2CC(c3ccc(Br)cc3)=NN2c2ccc(S(N)(=O)=O)cc2)cc(OC)c1OC` (configuration not stated) [4-[3-(4-Bromo-phenyl)-5-(3,4,5-trimethoxy-phenyl)-4,5-dihydropyrazol-1-yl]-benzene-sulfonamide (10a)], for which the values for the IC50 in experiment [1] and in experiment [2] were 7.52 µM and 780 nM, respectively.
As to `NS(=O)(=O)c1ccc(N2N=C(c3ccc(Br)cc3)CC2c2ccc(Cl)cc2)cc1` (configuration not stated) [4-[3-(4-Bromo-phenyl)-5-(4-chloro-phenyl)-4,5-dihydro-pyrazol-1-yl]-benzene-sulfonamide (10c)], the results for the IC50 in experiment [1] and in experiment [2] were 6.87 µM and 1430 nM, respectively.
In the case of `COc1cc(C2CC(c3ccc(Cl)cc3)=NN2c2ccc(S(N)(=O)=O)cc2)cc(OC)c1OC` (configuration not stated) [4-[3-(4-Chloro-phenyl)-5-(3,4,5-trimethoxy-phenyl)-4,5-dihydropyrazol-1-yl]-benzene-sulfonamide (10b)], the IC50 came to 3.41 µM in experiment [1] and 220 nM in experiment [2].
For `NS(=O)(=O)c1ccc(N2N=C(c3ccc(Cl)cc3)CC2c2ccc(Cl)cc2)cc1` (configuration not stated) [4-[3-(4-Chloro-phenyl)-5-(4-chloro-phenyl)-4,5-dihydro-pyrazol-1-yl]-benzene-sulfonamide (10d)] the same measures were 5.11 µM and 900 nM.
Turning to `COc1ccc(C2CC(c3ccc(Br)cc3)=NN2c2ccc(S(N)(=O)=O)cc2)cc1` (configuration not stated) [UNM-0000306138], the IC50 in experiment [1] worked out at 5.17 µM; in experiment [2], 630 nM.
